Measured values as given in ChEMBL document CHEMBL1287784, “A facile 1,3-dipolar cycloaddition of azomethine ylides to 2-arylidene-1,3-indanediones: synthesis of dispiro-oxindolylpyrrolothiazoles and their antimycobacterial evaluation” (2010).
Converted amounts (≈) assume the structure as drawn.

What follows are compounds tested on Mycobacterium tuberculosis (assay: Antimycobacterial activity against Mycobacterium tuberculosis H37Rv by agar dilution method).
Assay type: functional
For `O=C1c2ccccc2C(=O)C12[C@@H](c1ccccc1)[C@@H]1CSCN1[C@@]21C(=O)Nc2ccc([N+](=O)[O-])cc21`, the MIC was 12.6 µM (≈ 6.27 µg/mL).
`COc1cc([C@H]2[C@@H]3CSCN3[C@@]3(C(=O)Nc4ccc(Cl)cc43)C23C(=O)c2ccccc2C3=O)cc(OC)c1OC` showed an MIC of 21.7 µM (≈ 12.5 µg/mL).
`COc1ccc([C@H]2[C@@H]3CSCN3[C@@]3(C(=O)Nc4ccc([N+](=O)[O-])cc43)C23C(=O)c2ccccc2C3=O)cc1OC` gave an MIC of 11.2 µM (≈ 6.24 µg/mL).
For `COc1cc([C@H]2[C@@H]3CSCN3[C@@]3(C(=O)Nc4ccc([N+](=O)[O-])cc43)C23C(=O)c2ccccc2C3=O)cc(OC)c1OC`, the MIC was 10.6 µM (≈ 6.23 µg/mL).
`COc1cc([C@H]2[C@@H]3CSCN3[C@@]3(C(=O)Nc4ccccc43)C23C(=O)c2ccccc2C3=O)cc(OC)c1OC` was tested, and the MIC was greater than 46.1 µM.
In the case of `O=C1c2ccccc2C(=O)C12[C@@H](c1ccccc1)[C@@H]1CSCN1[C@@]21C(=O)Nc2ccc(Cl)cc21`, the MIC is reported as 25.7 µM (≈ 12.5 µg/mL).
Work on `O=C1c2ccccc2C(=O)C12[C@@H](c1ccc(Cl)cc1)[C@@H]1CSCN1[C@@]21C(=O)Nc2ccc(Cl)cc21` yielded an MIC of 2.99 µM (≈ 1.56 µg/mL).
In the case of `CC(C)c1ccc([C@H]2[C@@H]3CSCN3[C@@]3(C(=O)Nc4ccc(Cl)cc43)C23C(=O)c2ccccc2C3=O)cc1`, the MIC is reported as 11.8 µM (≈ 6.24 µg/mL).
For `COc1ccc([C@H]2[C@@H]3CSCN3[C@@]3(C(=O)Nc4ccc(Cl)cc43)C23C(=O)c2ccccc2C3=O)cc1`, the MIC was 24.2 µM (≈ 12.5 µg/mL).
`O=C1c2ccccc2C(=O)C12[C@@H](c1ccccc1Br)[C@@H]1CSCN1[C@@]21C(=O)Nc2ccc(Cl)cc21` was tested, and the MIC was 2.8 µM (≈ 1.58 µg/mL).
`COc1ccc([C@H]2[C@@H]3CSCN3[C@@]3(C(=O)Nc4ccc(Cl)cc43)C23C(=O)c2ccccc2C3=O)cc1OC` was tested, and the MIC was 22.9 µM (≈ 12.5 µg/mL).
In the case of `O=C1c2ccccc2C(=O)C12[C@@H](c1ccc(Cl)cc1)[C@@H]1CSCN1[C@@]21C(=O)Nc2ccc([N+](=O)[O-])cc21`, the MIC is reported as 2.9 µM (≈ 1.54 µg/mL).
Work on `O=C1c2ccccc2C(=O)C12[C@@H](c1ccc(Br)cc1)[C@@H]1CSCN1[C@@]21C(=O)Nc2ccc([N+](=O)[O-])cc21` yielded an MIC of 1.4 µM (≈ 0.807 µg/mL).
`COc1ccc([C@H]2[C@@H]3CSCN3[C@@]3(C(=O)Nc4ccc([N+](=O)[O-])cc43)C23C(=O)c2ccccc2C3=O)cc1` showed an MIC of 11.9 µM (≈ 6.28 µg/mL).
`O=C1c2ccccc2C(=O)C12[C@@H](c1ccccc1Cl)[C@@H]1CSCN1[C@@]21C(=O)Nc2ccc([N+](=O)[O-])cc21` was tested, and the MIC was 5.9 µM (≈ 3.14 µg/mL).
For `O=C1c2ccccc2C(=O)C12[C@@H](c1ccccc1Cl)[C@@H]1CSCN1[C@@]21C(=O)Nc2ccc(Cl)cc21`, the MIC was 6 µM (≈ 3.13 µg/mL).
For `O=C1c2ccccc2C(=O)C12[C@@H](c1ccccc1)[C@@H]1CSCN1[C@@]21C(=O)Nc2ccccc21`, the MIC was greater than 55.2 µM.
Compound `O=C1c2ccccc2C(=O)C12[C@@H](c1cccc(F)c1)[C@@H]1CSCN1[C@@]21C(=O)Nc2ccc([N+](=O)[O-])cc21` has an MIC of 3 µM (≈ 1.55 µg/mL).
For `O=C1c2ccccc2C(=O)C12[C@@H](c1ccc(Cl)cc1)[C@@H]1CSCN1[C@@]21C(=O)Nc2ccccc21`, the MIC was 25.7 µM (≈ 12.5 µg/mL).
`CC(C)c1ccc([C@H]2[C@@H]3CSCN3[C@@]3(C(=O)Nc4ccccc43)C23C(=O)c2ccccc2C3=O)cc1` gave an MIC of 25.3 µM (≈ 12.5 µg/mL).
With `O=C1c2ccccc2C(=O)C12[C@@H](c1cccc(Br)c1)[C@@H]1CSCN1[C@@]21C(=O)Nc2ccc([N+](=O)[O-])cc21` the MIC was 2.7 µM (≈ 1.56 µg/mL).
Compound `COc1ccc([C@H]2[C@@H]3CSCN3[C@@]3(C(=O)Nc4ccccc43)C23C(=O)c2ccccc2C3=O)cc1` has an MIC greater than 51.8 µM.
`Cc1ccccc1[C@H]1[C@@H]2CSCN2[C@@]2(C(=O)Nc3ccccc32)C12C(=O)c1ccccc1C2=O` was tested, and the MIC was 53.6 µM (≈ 25 µg/mL).
Work on `O=C1Nc2ccc([N+](=O)[O-])cc2[C@]12N1CSC[C@H]1[C@H](c1cccc(Cl)c1Cl)[C@]21Cc2ccccc2C1=O` yielded an MIC of 2.8 µM (≈ 1.55 µg/mL).
With `O=C1c2ccccc2C(=O)C12[C@@H](c1ccccc1Cl)[C@@H]1CSCN1[C@@]21C(=O)Nc2ccccc21` the MIC was 25.7 µM (≈ 12.5 µg/mL).
`O=C1c2ccccc2C(=O)C12[C@@H](c1ccccc1Br)[C@@H]1CSCN1[C@@]21C(=O)Nc2ccccc21` showed an MIC of 11.8 µM (≈ 6.27 µg/mL).
`O=C1c2ccccc2C(=O)C12[C@@H](c1cccc([N+](=O)[O-])c1)[C@@H]1CSCN1[C@@]21C(=O)Nc2ccccc21` was tested, and the MIC was 25.1 µM (≈ 12.5 µg/mL).
`COc1ccc([C@H]2[C@@H]3CSCN3[C@@]3(C(=O)Nc4ccccc43)C23C(=O)c2ccccc2C3=O)cc1OC` showed an MIC greater than 48.8 µM.
Compound `CC[C@@H](CO)NCCN[C@@H](CC)CO` [ETHAMBUTOL] has an MIC of 7.6 µM (≈ 1.55 µg/mL).
`NNC(=O)c1ccncc1` [ISONIAZID] showed an MIC of 0.4 µM (≈ 0.0549 µg/mL).
In the case of `CO[C@H]1/C=C/O[C@@]2(C)Oc3c(C)c(O)c4c(O)c(c(/C=N/N5CCN(C)CC5)c(O)c4c3C2=O)NC(=O)/C(C)=C\C=C\[C@H](C)[C@H](O)[C@@H](C)[C@@H](O)[C@@H](C)[C@H](OC(C)=O)[C@@H]1C` [RIFAMPIN], the MIC is reported as 0.1 µM (≈ 0.0823 µg/mL).
